“And” between values parts separate entries of the source, which are not always exact repeats. Equal values may be shown once.
The molecules below were run against T1, B-RAF (Homo sapiens, UniProt P15056, V600E) (assay: DELFIA Kinase Assay). Conditions: 100 μM ATP, GST-MEK substrate.
T1 construct: made in house
Format: biochemical
Method: Biological Methods—DELFIA Kinase Assay
Compounds were assessed by a kinase assay performed according to the following protocol.
DKB1 (DKB with B-RAF and MEK Protein):
Combine 4950 μL of DKB and 50 μL of 2.5 mg/ml GST-MEK stock (to give […] of MEK per 40 μL). Then add 22.5 μL of B-RAF to give ˜0.2 μL of B-RAF per 40 μL.
100 mM stock, dilute to 500 μM to give 100 μM final concentration in assay.
• 1. Preblock wells with 5% milk in TBS for 1 hour. • 2. Wash wells with 3× with 200 μL TBS. • 3. Plate out 40 μL of DKB1 for all inhibitors (test compounds), DMSO control, and optionally other control compounds. • 4. Plate out 40 μL of DKB2 for BO and EV wells. • 5. Add inhibitors (test compounds) at 0.5 μL per well according to desired plate layout. • 6. Add 0.5 μL DMSO to vehicle control wells. • 7. Add 2 μL of B-RAF to BO and EV wells. • 8. Pre-incubate with inhibitors (test compounds) for 10 minutes at room temperature with shaking. • 9. Add 10 μL of 500 μM ATP stock, in DKB, to give 100 μM assay concentration. • 10. Seal plates with TopSeal and incubate at room temperature with shaking for 45 minutes. • 11. Wash plates 3× with 200 μL 0.1% Tween20/Water to terminate reaction. • 12. Add 50 μL per well of antibody mix and incubate for 1 hour at room temperature with shaking. • 13. Wash plates 3× with 200 μL 0.1% Tween20/Water. • 14. Add 100 μL DELFIA enhancement solution per well, cover in foil, and incubate at room temperature for 30 minutes with shaking. • 15. Read on Victor using Europium protocol.
Values for the blank (Empty Vector) are subtracted from all values. The DMSO controls are set as 100% activity and assay points (the response) are calculated as a percentage of the DMSO control. Data are plotted using Graphpad Prism software and a non-linear regression line is calculated using a variable slope sigmoidal dose-response equation (Y=Bottom+(Top−Bottom)/(1+10^((LogEC50−X)*HillSlope)) where X is the logarithm of concentration. Y is the response). The IC50 generated by this procedure is the concentration of the drug that produces a percentage control fluorescence value midway between the saturation, and zero-effect plateaus. Three independent assays are usually performed and the mean IC50 is reported.

T1 sequence (P15056 whole entry V600E): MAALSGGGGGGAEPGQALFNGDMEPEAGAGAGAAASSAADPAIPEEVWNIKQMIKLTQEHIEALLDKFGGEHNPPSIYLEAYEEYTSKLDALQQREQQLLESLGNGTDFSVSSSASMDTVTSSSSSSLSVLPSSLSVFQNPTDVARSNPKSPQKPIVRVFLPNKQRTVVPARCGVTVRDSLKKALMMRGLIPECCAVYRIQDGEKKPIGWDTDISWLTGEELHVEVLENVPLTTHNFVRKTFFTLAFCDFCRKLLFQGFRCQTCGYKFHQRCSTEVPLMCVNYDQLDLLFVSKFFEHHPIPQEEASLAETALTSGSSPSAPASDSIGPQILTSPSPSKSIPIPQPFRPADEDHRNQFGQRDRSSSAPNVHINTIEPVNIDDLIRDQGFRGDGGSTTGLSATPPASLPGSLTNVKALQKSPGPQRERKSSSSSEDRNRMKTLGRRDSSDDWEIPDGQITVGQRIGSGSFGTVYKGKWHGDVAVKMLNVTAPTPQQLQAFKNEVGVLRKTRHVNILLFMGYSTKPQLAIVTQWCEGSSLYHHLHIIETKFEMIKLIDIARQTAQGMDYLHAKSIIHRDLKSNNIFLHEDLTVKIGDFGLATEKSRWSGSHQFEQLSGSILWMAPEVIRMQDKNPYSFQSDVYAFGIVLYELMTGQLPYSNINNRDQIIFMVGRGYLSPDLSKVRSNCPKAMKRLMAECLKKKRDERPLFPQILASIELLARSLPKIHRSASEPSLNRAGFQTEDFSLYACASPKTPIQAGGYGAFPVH

| IC50 | SMILES |
| --- | --- |
| < 100 nM | O=C(Nc1cccc(Oc2ccnc3[nH]c(=O)cnc23)c1)Nc1cc(C(F)(F)F)ccc1F [AA-007, 1-(2-fluoro-5-(trifluoromethyl)phenyl)-3-(3-(3-oxo-3,4-dihydropyrido[2,3-b]pyrazin-8-yloxy)phenyl)urea] |
| 100 to 1000 nM | Cc1nc2nccc(Oc3ccc(NC(=O)Nc4cc(C(C)(C)C)nn4-c4ccccc4)c4ccccc34)c2[nH]c1=O [AA-035, 1-(3-tert-butyl-1-phenyl-1H-pyrazol-5-yl)-3-(4-(3-methyl-2-oxo-1,2-dihydropyrido[2,3-b]pyrazin-8-yloxy)naphthalen-1-yl)urea] |
| < 1000 nM and 100 to 1000 nM | O=C(Nc1cc(C(F)(F)F)ccc1F)Nc1ccc(Oc2ccnc3ncc(=O)[nH]c23)c2ccccc12 [AA-038, 1-(2-fluoro-5-(trifluoromethyl)phenyl)-3-(4-(2-oxo-1,2-dihydropyrido[2,3-b]pyrazin-8-yloxy)naphthalen-1-yl)urea] |
| < 1000 nM and 100 to 1000 nM | Cc1nc2nccc(Oc3ccc(NC(=O)Nc4cc(C(F)(F)F)ccc4F)c4ccccc34)c2[nH]c1=O [AA-039, 1-(2-fluoro-5-(trifluoromethyl)phenyl)-3-(4-(3-methyl-2-oxo-1,2-dihydropyrido[2,3-b]pyrazin-8-yloxy)naphthalen-1-yl)urea] |
| 100 to 1000 nM | Cc1ccc(-n2nc(C(C)(C)C)cc2NC(=O)Nc2ccc(Oc3ccnc4ncc(=O)[nH]c34)cc2)cc1 [AA-040, 1-(3-tert-butyl-1-p-tolyl-1H-pyrazol-5-yl)-3-(4-(2-oxo-1,2-dihydropyrido[2,3-b]pyrazin-8-yloxy)phenyl)urea] |
| 100 to 1000 nM | Cc1nc2nccc(Oc3ccc(NC(=O)Nc4cc(C(C)(C)C)nn4-c4ccccc4)c(F)c3)c2[nH]c1=O [AA-041, 1-(3-Tert-butyl-1-phenyl-1H-pyrazol-5-yl)-3-(2-fluoro-4-(3-methyl-2-oxo-1,2-dihydropyrido[2,3-b]pyrazin-8-yloxy)phenyl)urea] |
| < 1000 nM and 100 to 1000 nM | O=C(Nc1ccc(Oc2ccnc3ncc(=O)[nH]c23)cc1)Nc1ccc(Cl)c(C(F)(F)F)c1 [AA-042, 1-(4-chloro-3-(trifluoromethyl)phenyl)-3-(4-(2-oxo-1,2-dihydropyrido[2,3-b]pyrazin-8-yloxy)phenyl)urea] |
| 100 to 1000 nM | O=C(Nc1ccc(Oc2ccnc3ncc(=O)[nH]c23)cc1)Nc1cc(C(F)(F)F)ccc1F [AA-043, 1-(2-fluoro-5-(trifluoromethyl)phenyl)-3-(4-(2-oxo-1,2-dihydropyrido[2,3-b]pyrazin-8-yloxy)phenyl)urea] |
| < 100 nM | Nc1nc2c(Oc3ccc(NC(=O)Nc4cc(C(F)(F)F)ccc4F)c(F)c3)ccnc2[nH]c1=O [AA-044, 1-(4-(2-amino-3-oxo-3,4-dihydropyrido[2,3-b]pyrazin-8-yloxy)-2-fluorophenyl)-3-(2-fluoro-5-(trifluoromethyl)phenyl)urea] |
| < 100 nM | CSc1cc(Oc2ccnc3ncc(=O)[nH]c23)ccc1NC(=O)Nc1ccc(Cl)c(C(F)(F)F)c1 [AA-045, 1-(4-chloro-3-(trifluoromethyl)phenyl)-3-(2-(methylthio)-4-(2-oxo-1,2-dihydropyrido[2,3-b]pyrazin-8-yloxy)phenyl)urea] |
| < 1000 nM and 100 to 1000 nM | CSc1cc(Oc2ccnc3ncc(=O)[nH]c23)ccc1NC(=O)Nc1cc(C(F)(F)F)ccc1F [AA-046, 1-(2-fluoro-5-(trifluoromethyl)phenyl)-3-(2-(methylthio)-4-(2-oxo-1,2-dihydropyrido[2,3-b]pyrazin-8-yloxy)phenyl)urea] |
| < 100 nM | O=C(Nc1ccc(Oc2ccnc3ncc(=O)[nH]c23)cc1F)Nc1cc(C(F)(F)F)ccc1F [AA-047] |
| < 100 nM | O=C(Nc1ccc(Cl)c(C(F)(F)F)c1)Nc1ccc(Oc2ccnc3ncc(=O)[nH]c23)cc1F [AA-048, 1-(4-Chloro-3-(trifluoromethyl)phenyl)-3-(2-fluoro-4-(2-oxo-1,2-dihydropyrido[2,3-b]pyrazin-8-yloxy)phenyl)urea] |
| < 1000 nM and 100 to 1000 nM | Cc1nc2nccc(Oc3ccc(NC(=O)Nc4cc(C(F)(F)F)ccc4F)c(F)c3)c2[nH]c1=O [AA-049, 1-(2-fluoro-4-(3-methyl-2-oxo-1,2-dihydropyrido[3,2-b]pyrazin-8-yloxy)phenyl)-3-(2-fluoro-5-(trifluoromethyl)phenyl)urea] |
| < 100 nM | O=C(Nc1ccc(Oc2ccnc3[nH]c(=O)c(=O)[nH]c23)cc1)Nc1ccc(Cl)c(C(F)(F)F)c1 [AA-050, 1-(4-chloro-3-(trifluoromethyl)phenyl)-3-(4-(2,3-dioxo-1,2,3,4-tetrahydropyrido[2,3-b]pyrazin-8-yloxy)phenyl)urea] |
| < 100 nM | CSc1cc(Oc2ccnc3[nH]c(=O)c(=O)[nH]c23)ccc1NC(=O)Nc1ccc(Cl)c(C(F)(F)F)c1 [AA-051, 1-(4-chloro-3-(trifluoromethyl)phenyl)-3-(4-(2,3-dioxo-1,2,3,4-tetrahydropyrido[2,3-b]pyrazin-8-yloxy)-2-(methylthio)phenyl)urea] |
| < 100 nM | CSc1cc(Oc2ccnc3[nH]c(=O)c(=O)[nH]c23)ccc1NC(=O)Nc1cc(C(F)(F)F)ccc1F [AA-052, 1-(4-(2,3-dioxo-1,2,3,4-tetrahydropyrido[2,3-b]pyrazin-8-yloxy)-2-(methylthio)phenyl)-3-(2-fluoro-5-(trifluoromethyl)phenyl)urea] |
| < 1000 nM and 100 to 1000 nM | CN1CCN(c2cnc3c(Oc4ccc(NC(=O)Nc5cc(C(C)(C)C)nn5-c5ccccc5)c(F)c4)ccnc3n2)CC1 [AA-053, 1-(3-Tert-butyl-1-phenyl-1H-pyrazol-5-yl)-3-(2-fluoro-4-(3-(4-methylpiperazin-1-yl)pyrido[2,3-b]pyrazin-8-yloxy)phenyl)urea] |
| < 100 nM | O=C(Nc1ccc(Oc2ccnc3nc(N4CCOCC4)cnc23)cc1F)Nc1cc(C(F)(F)F)ccc1F [AA-054, 1-(2-Fluoro-4-(3-morpholinopyrido[2,3-b]pyrazin-8-yloxy)phenyl)-3-(2-fluoro-5-(trifluoromethyl)phenyl)urea] |
| < 1000 nM and 100 to 1000 nM | CN1CCN(c2cnc3c(Oc4ccc(NC(=O)Nc5cc(C(F)(F)F)ccc5F)c(F)c4)ccnc3n2)CC1 [AA-056, 1-(2-Fluoro-4-(3-(4-methylpiperazin-1-yl)pyrido[3,2-b]pyrazin-8-yloxy)phenyl)-3-(2-fluoro-5-(trifluoromethyl)phenyl)urea] |
| 100 to 1000 nM | O=C(Nc1cc(C(F)(F)F)ccc1F)Nc1ccc(Oc2ccnc3[nH]c(=O)c(C(F)(F)F)nc23)c2ccccc12 [AA-082, 1-(2-fluoro-5-(trifluoromethyl)phenyl)-3-(4-(3-oxo-2-(trifluoromethyl)-3,4-dihydropyrido[2,3-b]pyrazin-8-yloxy)naphthalen-1-yl)urea] |

The molecules below were run on WM266.4 melanoma cells (assay: SRB Cell Proliferation Assay (SRB GI50)). Conditions: Homo sapiens, WM 266-4, 144 h, 6 days growth.
Format: cell-based
Method: Biological Methods —SRB Cell Proliferation Assay (SRB GI50)
Cultures of WM266.4 melanoma cells are routinely cultured in DMEM/10% foetal bovine serum, at 37° C., in 5% CO2 water saturated atmosphere. Cultures are maintained in exponential growth phase by sub-culturing before having become confluent (3-5 day intervals). Single cell suspensions are prepared by harvesting an 80 cm^2 tissue culture flask with 5 mL commercial trypsin EDTA. After 5 minutes, the detached cells are mixed with 5 mL fully complemented culture medium and centrifugally pelleted (1000 rpm for 7 minutes). After aspirating the supernatant, the cell pellet is re-suspended in 10 mL fresh medium and the cells fully disaggregated by drawing the whole volume up/down 5 times through a 19-gauge needle. The concentration of the cells is determined using a haemocytometer (1/10 dilution). A suitable volume to give at least a 2-fold excess for the number of tests being conducted, typically 100-200 mL, is prepared by diluting the cell suspension to 10,000/mL, and 100 μL/well dispensed into 96 well plates using a programmable 8-channel peristaltic pump, giving 1000 cells/well, leaving column 12 blank. The plates are returned to the incubator for 24 hours to allow the cells to re-attach.
The compounds being tested are prepared at 20 mM in dimethylsulphoxide. Aliquots (200 μL) are diluted into 20 mL culture medium giving 200 μM, and 10 serial dilutions of 3× performed by transferring 5 mL to 10 mL. Aliquots (100 μL) of each dilution are added to the wells, using an 8-channel pipettor, thus performing a final further 2× dilution, and giving doses ranging from 100 μM to 0.005 μM. Column 11 receives plain culture medium only. Each compound is tested in quadruplicate, each replicate being the average of four wells, and two plates per compound.
After a further 6 days growth, the plates are emptied, and the cells are fixed in 10% trichloroacteic acid for 10 minutes on ice. After thorough rinsing in running tap water, the plates are dried, and stained by adding 50 μL of a solution of 0.1% sulphorhodamine-B in 1% acetic acid, for 10 minutes at room temperature. The stain is poured out and the plates thoroughly rinsed under a stream of 1% acetic acid, thus removing unbound stain, and dried. The bound stain is taken into solution by addition of 150 μL Tris buffer pH 8, followed by 10 minutes on a plate-shaker (approximately 500 rpm). The absorbance at 540 nm in each well (being proportional to the number of cells present) is determined using a plate reader.
After averaging the results in rows A-D and E-H, the blank value (row 12) is subtracted, and results expressed as percentage of the untreated value (row 11). […] The GI50 generated by this procedure is the concentration of the drug that produces a percentage control A540 midway between the saturation, and zero-effect plateaus.

| GI50 [nM] | SMILES |
| --- | --- |
| 1000 to 10000 | O=C(Nc1cccc(Oc2ccnc3[nH]c(=O)cnc23)c1)Nc1cc(C(F)(F)F)ccc1F [AA-007, 1-(2-fluoro-5-(trifluoromethyl)phenyl)-3-(3-(3-oxo-3,4-dihydropyrido[2,3-b]pyrazin-8-yloxy)phenyl)urea] |
